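All cell lines were grown in 96-well plates and treated with compound for 48 hours. At the GI50, growth is halved. Definition used: TGI = concentration required for complete inhibition of growth.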
How the values were obtained:
Assay in all cases: NCI anticancer screen, dose series, 48 h
SNB-75 CNS = system: SNB-75 CNS
SK-MEL-28 melanoma = system: SK-MEL-28 melanoma
U251 CNS = system: U251 CNS
A549 NSCLC = system: A549 NSCLC
A498 renal = system: A498 renal
HOP-62 NSCLC = system: HOP-62 NSCLC
NCI-H460 lung = system: NCI-H460 lung
DU-145 prostate = system: DU-145 prostate
MDA-MB-231 breast = system: MDA-MB-231 breast
NCI/ADR-RES ovarian = system: NCI/ADR-RES ovarian

Row | SMILES | GI50 (SNB-75 CNS) [µM] | TGI (SNB-75 CNS) [µM] | GI50 (SK-MEL-28 melanoma) [µM] | TGI (SK-MEL-28 melanoma) [µM] | GI50 (U251 CNS) [µM] | TGI (U251 CNS) [µM] | GI50 (A549 NSCLC) [µM] | TGI (A549 NSCLC) [µM] | GI50 (A498 renal) [µM] | TGI (A498 renal) [µM] | GI50 (HOP-62 NSCLC) [µM] | TGI (HOP-62 NSCLC) [µM] | TGI (NCI-H460 lung) [µM] | TGI (DU-145 prostate) [µM] | GI50 (MDA-MB-231 breast) [µM] | TGI (MDA-MB-231 breast) [µM] | GI50 (NCI-H460 lung) [µM] | GI50 (NCI/ADR-RES ovarian) [µM] | TGI (NCI/ADR-RES ovarian) [µM] | GI50 (DU-145 prostate) [µM]
1 | CN(C)CCC(N)(P(=O)([O-])[O-])P(=O)([O-])[O-].N.N.[Pt+2] | > 100 | > 100 | > 100 | > 100 | > 100 | > 100 | > 100 | > 100 | > 100 | > 100 | > 100 | > 100 |  |  |  |  |  |  |  | 
2 | COc1ccc(C2COc3c(ccc(OC)c3OC)C2=O)cc1OC (centres undefined) |  | > 100 |  | > 100 |  | > 100 |  | > 100 |  | > 100 |  | > 100 | > 100 |  |  |  |  |  |  | 
3 | COc1ccc2c(c1)[C@@H](NC(C)=O)CCc1cc(OC)c(OC)c(OC)c1-2 |  | 12.9 |  | > 100 |  | 2.02 |  | > 100 |  | > 100 |  | > 100 | > 15.8 | 0.0433 |  |  |  |  |  | 
4 | O=C1C2C3CC4C5C3C1C5C1(SCCS1)C42 (centres undefined) |  | > 100 |  | > 100 |  | > 100 |  | > 100 |  | > 100 |  | > 100 | > 100 |  |  |  |  |  |  | 
5 | NC(N)NCCCc1cn2c(n1)C1CCCN1C(=O)C2Cc1ccccc1 (centres undefined) |  | > 100 |  | > 100 |  | > 100 |  | > 100 |  | > 100 |  | > 100 | > 100 |  |  |  |  |  |  | 
6 | CC1(OCc2ccccc2)C(=O)N2C1NCC2(C)C (centres undefined) |  | > 100 |  | > 100 |  | > 100 |  | > 100 |  | > 100 |  | > 100 | > 100 |  |  |  |  |  |  | 
7 | CC(C)=CCc1cc2c(cc1O)C1=C(C(=O)C3=C(NCCS3(=O)=O)C1=O)C(C=C(C)C)O2 (centres undefined) | 10.8 | > 16.7 | 3.81 | 9.84 | 4.19 | 13.9 | > 16.7 | > 16.7 | > 16.7 | > 16.7 | 8.59 | > 16.7 | > 16.7 |  | 4.18 | 16.2 | 5.35 | > 16.7 | > 16.7 | 
8 | CCN(CC)C(=O)CCn1ccc(=O)[nH]c1=O |  | > 100 |  | > 100 |  | > 100 |  | > 100 |  |  |  | > 100 | > 100 |  |  |  |  |  |  | 
9 | Cn1ncnc1[C@@H]1c2n[nH]c(=O)c3cc(F)cc(c23)N[C@H]1c1ccc(F)cc1 | > 100 | > 100 | > 100 | > 100 |  |  | > 100 | > 100 | > 100 | > 100 | > 100 | > 100 | > 100 | > 100 | > 100 | > 100 | 78.4 | > 100 | > 100 | > 100
10 | CC(=O)OC(C)(C)C1CC[C@]2(C)/C=C/C(C)C[C@@H](O)/C=C(\C)CC(O)C12 (some centres undefined) |  | > 100 |  | > 100 |  | > 100 |  | > 100 |  | > 100 |  | > 100 | > 100 |  |  |  |  |  |  | 
11 | O=C(O)CN1CCSc2ccccc2CN(CC(=O)O)CCSc2ccccc2C1 |  | > 100 |  | > 100 |  | > 100 |  | > 100 |  | > 100 |  | > 100 | > 100 |  |  |  |  |  |  | 

— PubChem BioAssay (NCI)
